Tests used:
barnyard grass [1] = assay: Test Example 3: herbicidal effect by foliage application, Wagner pot (Table 18, symbol H); format: in vivo, barnyard grass (Echinochloa crus-galli); settings: 320 g/ha
Outline: (§1)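 Plants were sown in alluvial soil held under 0.1–0.5 cm standing water and grown 14 days in a greenhouse at 25–30 °C. An emulsifiable formulation, water-diluted to the set dose, was then sprayed onto the foliage, and effects were scored three weeks later using previously defined criteria.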

Chinese sprangletop = assay: Test Example 3: herbicidal effect by foliage application, Wagner pot (Table 18, symbol D); format: in vivo, chinese sprangletop (Leptochloa chinensis); settings: 320 g/ha
Outline: as §1

rice flat sedge = assay: Test Example 3: herbicidal effect by foliage application, Wagner pot (Table 18, symbol E); format: in vivo, rice flat sedge (Cyperus iria); settings: 320 g/ha
Outline: as §1

southern crabgrass [2] = assay: Test Example 4: herbicidal effect by soil treatment (Table 19, symbol F); format: in vivo, southern crabgrass (Digitaria ciliaris); settings: amount of applied herbicide 320 g/ha
Outline: (§2)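 Emulsion of test compound, water-diluted to predetermined amount, sprayed on soil after sowing (seed depth ~1.5 cm, sterilized diluvial soil). Greenhouse, 25–30° C. Effect graded at three weeks post-spray.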

green foxtail [3] = assay: Test Example 4: herbicidal effect by soil treatment (Table 19, symbol G); format: in vivo, green foxtail (Setaria viridis); settings: amount of applied herbicide 320 g/ha
Outline: as §2

barnyard grass [4] = assay: Test Example 4: herbicidal effect by soil treatment (Table 19, symbol H); format: in vivo, barnyard grass (Echinochloa crus-galli); settings: amount of applied herbicide 320 g/ha
Outline: as §2

wild oat [5] = assay: Test Example 4: herbicidal effect by soil treatment (Table 19, symbol I); format: in vivo, wild oat (Avena fatua); settings: amount of applied herbicide 320 g/ha
Outline: as §2

blackgrass [6] = assay: Test Example 4: herbicidal effect by soil treatment (Table 19, symbol J); format: in vivo, blackgrass (Alopecurus myosuroides); settings: amount of applied herbicide 320 g/ha
Outline: as §2

Italian ryegrass [7] = assay: Test Example 4: herbicidal effect by soil treatment (Table 19, symbol K); format: in vivo, Italian ryegrass (Lolium multiflorum); settings: amount of applied herbicide 320 g/ha
Outline: as §2

windgrass [8] = assay: Test Example 4: herbicidal effect by soil treatment (Table 19, symbol L); format: in vivo, windgrass (Apera spica-venti); settings: amount of applied herbicide 320 g/ha
Outline: as §2

velvetleaf [9] = assay: Test Example 4: herbicidal effect by soil treatment (Table 19, symbol M); format: in vivo, velvetleaf (Abutilon theophrasti); settings: amount of applied herbicide 320 g/ha
Outline: as §2

redroot pigweed [10] = assay: Test Example 4: herbicidal effect by soil treatment (Table 19, symbol N); format: in vivo, redroot pigweed (Amaranthus retroflexus); settings: amount of applied herbicide 320 g/ha
Outline: as §2

lambsquarters [11] = assay: Test Example 4: herbicidal effect by soil treatment (Table 19, symbol O); format: in vivo, lambsquarters (Chenopodium album); settings: amount of applied herbicide 320 g/ha
Outline: as §2

chickweed [12] = assay: Test Example 4: herbicidal effect by soil treatment (Table 19, symbol P); format: in vivo, common chickweed (Stellaria media); settings: amount of applied herbicide 320 g/ha
Outline: as §2

persian speedwell [13] = assay: Test Example 4: herbicidal effect by soil treatment (Table 19, symbol R); format: in vivo, Persian speedwell (Veronica persica); settings: amount of applied herbicide 320 g/ha
Outline: as §2

southern crabgrass [14] = assay: Test Example 5: herbicidal effect by foliage application, plastic box (Table 20, symbol F); format: in vivo, southern crabgrass (Digitaria ciliaris); settings: amount of applied herbicide 320 g/ha; foliage application after 14-day growth; evaluated three weeks after application
Outline: (§3)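 Post-emergence foliar test in sterilized diluvial soil. Compound applied as water-diluted emulsion at a predetermined rate to 14-day-old plants; evaluation at three weeks.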

green foxtail [15] = assay: Test Example 5: herbicidal effect by foliage application, plastic box (Table 20, symbol G); format: in vivo, green foxtail (Setaria viridis); settings: amount of applied herbicide 320 g/ha; foliage application after 14-day growth; evaluated three weeks after application
Outline: as §3

barnyard grass [16] = assay: Test Example 5: herbicidal effect by foliage application, plastic box (Table 20, symbol H); format: in vivo, barnyard grass (Echinochloa crus-galli); settings: amount of applied herbicide 320 g/ha; foliage application after 14-day growth; evaluated three weeks after application
Outline: as §3

wild oat [17] = assay: Test Example 5: herbicidal effect by foliage application, plastic box (Table 20, symbol I); format: in vivo, wild oat (Avena fatua); settings: amount of applied herbicide 320 g/ha; foliage application after 14-day growth; evaluated three weeks after application
Outline: as §3

blackgrass [18] = assay: Test Example 5: herbicidal effect by foliage application, plastic box (Table 20, symbol J); format: in vivo, blackgrass (Alopecurus myosuroides); settings: amount of applied herbicide 320 g/ha; foliage application after 14-day growth; evaluated three weeks after application
Outline: as §3

Italian ryegrass [19] = assay: Test Example 5: herbicidal effect by foliage application, plastic box (Table 20, symbol K); format: in vivo, Italian ryegrass (Lolium multiflorum); settings: amount of applied herbicide 320 g/ha; foliage application after 14-day growth; evaluated three weeks after application
Outline: as §3

windgrass [20] = assay: Test Example 5: herbicidal effect by foliage application, plastic box (Table 20, symbol L); format: in vivo, windgrass (Apera spica-venti); settings: amount of applied herbicide 320 g/ha; foliage application after 14-day growth; evaluated three weeks after application
Outline: as §3

velvetleaf [21] = assay: Test Example 5: herbicidal effect by foliage application, plastic box (Table 20, symbol M); format: in vivo, velvetleaf (Abutilon theophrasti); settings: amount of applied herbicide 320 g/ha; foliage application after 14-day growth; evaluated three weeks after application
Outline: as §3

redroot pigweed [22] = assay: Test Example 5: herbicidal effect by foliage application, plastic box (Table 20, symbol N); format: in vivo, redroot pigweed (Amaranthus retroflexus); settings: amount of applied herbicide 320 g/ha; foliage application after 14-day growth; evaluated three weeks after application
Outline: as §3

lambsquarters [23] = assay: Test Example 5: herbicidal effect by foliage application, plastic box (Table 20, symbol O); format: in vivo, lambsquarters (Chenopodium album); settings: amount of applied herbicide 320 g/ha; foliage application after 14-day growth; evaluated three weeks after application
Outline: as §3

chickweed [24] = assay: Test Example 5: herbicidal effect by foliage application, plastic box (Table 20, symbol P); format: in vivo, common chickweed (Stellaria media); settings: amount of applied herbicide 320 g/ha; foliage application after 14-day growth; evaluated three weeks after application
Outline: as §3

persian speedwell [25] = assay: Test Example 5: herbicidal effect by foliage application, plastic box (Table 20, symbol R); format: in vivo, Persian speedwell (Veronica persica); settings: amount of applied herbicide 320 g/ha; foliage application after 14-day growth; evaluated three weeks after application
Outline: as §3

SMILES	herbicidal effect on barnyard grass (H) (barnyard grass [1])	herbicidal effect on Chinese sprangletop (D) (Chinese sprangletop)	herbicidal effect on rice flat sedge (E) (rice flat sedge)	Herbicidal effect by foliage application, F: southern crabgrass (southern crabgrass [14])	Herbicidal effect by foliage application, G: green foxtail (green foxtail [15])	Herbicidal effect by foliage application, H: barnyard grass (barnyard grass [16])	Herbicidal effect by foliage application, I: wild oat (wild oat [17])	Herbicidal effect by foliage application, J: blackgrass (blackgrass [18])	Herbicidal effect by foliage application, K: Italian ryegrass (Italian ryegrass [19])	Herbicidal effect by foliage application, L: windgrass (windgrass [20])	Herbicidal effect by foliage application, M: velvetleaf (velvetleaf [21])	Herbicidal effect by foliage application, N: redroot pigweed (redroot pigweed [22])	Herbicidal effect by foliage application, O: lambsquarters (lambsquarters [23])	Herbicidal effect by foliage application, P: chickweed (chickweed [24])	Herbicidal effect by foliage application, R: persian speedwell (persian speedwell [25])	F: southern crabgrass, herbicidal effect grade (southern crabgrass [2])	G: green foxtail, herbicidal effect grade (green foxtail [3])	H: barnyard grass, herbicidal effect grade (barnyard grass [4])	I: wild oat, herbicidal effect grade (wild oat [5])	J: blackgrass, herbicidal effect grade (blackgrass [6])	also measured
Cc1nn(C)c(=O)c(-c2c(-c3ccc(Br)cc3)sc3c(C)cccc23)c1O [4-104]	2 (Herbicidal rate of 20% or more and less than 40%)	0 (Herbicidal rate of 5% or less (almost no effect))	0 (Herbicidal rate of 5% or less (almost no effect))	0 (Herbicidal rate of 5% or less (almost no effect))	0 (Herbicidal rate of 5% or less (almost no effect))	0 (Herbicidal rate of 5% or less (almost no effect))	0 (Herbicidal rate of 5% or less (almost no effect))	0 (Herbicidal rate of 5% or less (almost no effect))	4 (Herbicidal rate of 70% or more and less than 90%)	3 (Herbicidal rate of 40% or more and less than 70%)	5 (Herbicidal rate of 90% or more (almost completely withered))	5 (Herbicidal rate of 90% or more (almost completely withered))	4 (Herbicidal rate of 70% or more and less than 90%)	5 (Herbicidal rate of 90% or more (almost completely withered))	5 (Herbicidal rate of 90% or more (almost completely withered))	–	–	–	–	–	Herbicidal effect by soil treatment, F: southern crabgrass (southern crabgrass [2]): 0 (Herbicidal rate of 5% or less (almost no effect)); Herbicidal effect by soil treatment, G: green foxtail (green foxtail [3]): 0 (Herbicidal rate of 5% or less (almost no effect)); Herbicidal effect by soil treatment, H: barnyard grass (barnyard grass [4]): 0 (Herbicidal rate of 5% or less (almost no effect)); Herbicidal effect by soil treatment, I: wild oat (wild oat [5]): 0 (Herbicidal rate of 5% or less (almost no effect)); Herbicidal effect by soil treatment, J: blackgrass (blackgrass [6]): 0 (Herbicidal rate of 5% or less (almost no effect)); Herbicidal effect by soil treatment, K: Italian ryegrass (Italian ryegrass [7]): 0 (Herbicidal rate of 5% or less (almost no effect)); Herbicidal effect by soil treatment, L: windgrass (windgrass [8]): 0 (Herbicidal rate of 5% or less (almost no effect)); Herbicidal effect by soil treatment, M: velvetleaf (velvetleaf [9]): 2 (Herbicidal rate of 20% or more and less than 40%); Herbicidal effect by soil treatment, N: redroot pigweed (redroot pigweed [10]): 4 (Herbicidal rate of 70% or more and less than 90%); Herbicidal effect by soil treatment, O: lambsquarters (lambsquarters [11]): 1 (Herbicidal rate of 5% or more and less than 20%); Herbicidal effect by soil treatment, P: chickweed (chickweed [12]): 3 (Herbicidal rate of 40% or more and less than 70%); Herbicidal effect by soil treatment, R: persian speedwell (persian speedwell [13]): 3 (Herbicidal rate of 40% or more and less than 70%)
Cc1nn(C)c(=O)c(-c2c(-c3ccc(OC(F)(F)F)cc3)sc3c(C)cccc23)c1O [4-130]	3 (Herbicidal rate of 40% or more and less than 70%)	0 (Herbicidal rate of 5% or less (almost no effect))	4 (Herbicidal rate of 70% or more and less than 90%)	0 (Herbicidal rate of 5% or less (almost no effect))	0 (Herbicidal rate of 5% or less (almost no effect))	0 (Herbicidal rate of 5% or less (almost no effect))	0 (Herbicidal rate of 5% or less (almost no effect))	3 (Herbicidal rate of 40% or more and less than 70%)	3 (Herbicidal rate of 40% or more and less than 70%)	3 (Herbicidal rate of 40% or more and less than 70%)	4 (Herbicidal rate of 70% or more and less than 90%)	5 (Herbicidal rate of 90% or more (almost completely withered))	5 (Herbicidal rate of 90% or more (almost completely withered))	5 (Herbicidal rate of 90% or more (almost completely withered))	5 (Herbicidal rate of 90% or more (almost completely withered))	0 (Herbicidal rate of 5% or less (almost no effect))	0 (Herbicidal rate of 5% or less (almost no effect))	0 (Herbicidal rate of 5% or less (almost no effect))	0 (Herbicidal rate of 5% or less (almost no effect))	0 (Herbicidal rate of 5% or less (almost no effect))	K: Italian ryegrass, herbicidal effect grade (Italian ryegrass [7]): 0 (Herbicidal rate of 5% or less (almost no effect)); L: windgrass, herbicidal effect grade (windgrass [8]): 0 (Herbicidal rate of 5% or less (almost no effect)); M: velvetleaf, herbicidal effect grade (velvetleaf [9]): 2 (Herbicidal rate of 20% or more and less than 40%); N: redroot pigweed, herbicidal effect grade (redroot pigweed [10]): 5 (Herbicidal rate of 90% or more (almost completely withered)); O: lambsquarters, herbicidal effect grade (lambsquarters [11]): 1 (Herbicidal rate of 5% or more and less than 20%); P: chickweed, herbicidal effect grade (chickweed [12]): 1 (Herbicidal rate of 5% or more and less than 20%); R: persian speedwell, herbicidal effect grade (persian speedwell [13]): 4 (Herbicidal rate of 70% or more and less than 90%)
Cc1ccc(-c2sc3cc(F)c(F)cc3c2-c2c(O)c(C)nn(C)c2=O)cc1 [5-003]	3 (Herbicidal rate of 40% or more and less than 70%)	3 (Herbicidal rate of 40% or more and less than 70%)	5 (Herbicidal rate of 90% or more (almost completely withered))	0 (Herbicidal rate of 5% or less (almost no effect))	2 (Herbicidal rate of 20% or more and less than 40%)	0 (Herbicidal rate of 5% or less (almost no effect))	0 (Herbicidal rate of 5% or less (almost no effect))	0 (Herbicidal rate of 5% or less (almost no effect))	2 (Herbicidal rate of 20% or more and less than 40%)	0 (Herbicidal rate of 5% or less (almost no effect))	5 (Herbicidal rate of 90% or more (almost completely withered))	5 (Herbicidal rate of 90% or more (almost completely withered))	5 (Herbicidal rate of 90% or more (almost completely withered))	5 (Herbicidal rate of 90% or more (almost completely withered))	5 (Herbicidal rate of 90% or more (almost completely withered))	1 (Herbicidal rate of 5% or more and less than 20%)	4 (Herbicidal rate of 70% or more and less than 90%)	3 (Herbicidal rate of 40% or more and less than 70%)	0 (Herbicidal rate of 5% or less (almost no effect))	0 (Herbicidal rate of 5% or less (almost no effect))	K: Italian ryegrass, herbicidal effect grade (Italian ryegrass [7]): 0 (Herbicidal rate of 5% or less (almost no effect)); L: windgrass, herbicidal effect grade (windgrass [8]): 0 (Herbicidal rate of 5% or less (almost no effect)); M: velvetleaf, herbicidal effect grade (velvetleaf [9]): 2 (Herbicidal rate of 20% or more and less than 40%); N: redroot pigweed, herbicidal effect grade (redroot pigweed [10]): 3 (Herbicidal rate of 40% or more and less than 70%); O: lambsquarters, herbicidal effect grade (lambsquarters [11]): 5 (Herbicidal rate of 90% or more (almost completely withered)); P: chickweed, herbicidal effect grade (chickweed [12]): 4 (Herbicidal rate of 70% or more and less than 90%); R: persian speedwell, herbicidal effect grade (persian speedwell [13]): 4 (Herbicidal rate of 70% or more and less than 90%)

Source: patent publication US20230085307A1, “PYRIDAZINONE COMPOUND AND HERBICIDE” (NISSAN CHEMICAL CORPORATION, priority 2019, published 2023)
